The results in this text go back to US8501794B2, “Compounds as cannabinoid receptor ligands” (priority 2007, dated 2013).

In general, Ki refers to a measure of affinity in units of concentration, obtained from inhibition or displacement.

The target in assay [1] is T1, rat CB2 (Rattus norvegicus, UniProt Q9QZN9).
T1 sequence (Q9QZN9 1-360): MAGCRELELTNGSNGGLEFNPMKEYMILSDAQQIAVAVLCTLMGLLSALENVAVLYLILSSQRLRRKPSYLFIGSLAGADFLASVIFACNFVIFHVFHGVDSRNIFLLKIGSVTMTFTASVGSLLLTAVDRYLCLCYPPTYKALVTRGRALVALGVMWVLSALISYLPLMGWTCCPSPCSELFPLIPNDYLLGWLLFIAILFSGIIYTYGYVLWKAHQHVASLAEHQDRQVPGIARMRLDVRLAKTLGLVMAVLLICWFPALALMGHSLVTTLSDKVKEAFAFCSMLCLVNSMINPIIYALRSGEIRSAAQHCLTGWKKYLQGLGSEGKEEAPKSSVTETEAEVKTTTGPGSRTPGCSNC
Nature of the assay: rat CB2 radioligand binding assay ([3H]CP-55,940 competition). More on the design: expressed in transfected cells; host or cells: HEK293.

Assay [2] concerns the target T2, human CB2 receptors (Homo sapiens, UniProt P34972).
T2 construct: expressed in transfected cells; host or cells: HEK293
Nature of the assay: human CB2 radioligand binding assay ([3H]CP-55,940 competition).

Where [3] appears, read: HEK293 membranes, 0.5 nM [3H]CP-55,940, read-out: rat CB2 (Ki).
Where [4] appears, read: HEK293 membranes, 0.5 nM [3H]CP-55,940, read-out: human CB2 (Ki).

Like-named read-outs stand apart in the source and are kept apart here.

T2 sequence (P34972 whole entry): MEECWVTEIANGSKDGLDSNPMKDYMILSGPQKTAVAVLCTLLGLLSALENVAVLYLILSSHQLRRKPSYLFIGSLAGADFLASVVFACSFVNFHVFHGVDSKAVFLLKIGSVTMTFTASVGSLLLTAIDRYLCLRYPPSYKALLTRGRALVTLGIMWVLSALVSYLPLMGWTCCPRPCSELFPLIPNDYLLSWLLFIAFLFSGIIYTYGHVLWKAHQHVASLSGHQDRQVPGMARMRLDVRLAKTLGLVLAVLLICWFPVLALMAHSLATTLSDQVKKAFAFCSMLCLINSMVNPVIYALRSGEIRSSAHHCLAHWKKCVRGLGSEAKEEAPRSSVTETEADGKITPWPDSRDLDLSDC

As for `COc1ccc(Cl)cc1C(=O)/N=c1\sn(C(C)(C)C)cc1CN=[N+]=[N-]` [Example 32, N-[(5Z)-4-(azidomethyl)-2-tert-butylisothiazol-5(2H)-ylidene]-5-chloro-2-methoxybenzamide], the Ki in assay [1] stood at 20 nM; in assay [2] it was 170 nM.
In the case of `CCCCc1cn(C(C)(C)C)s/c1=N\C(=O)[C@@H]1CC[C@](C)(C2=NCCO2)C1(C)C` [Example 224, (1R,3S)—N-[(5Z)-4-butyl-2-tert-butylisothiazol-5(2H)-ylidene]-3-(4,5-dihydro-1,3-oxazol-2-yl)-2,2,3-trimethylcyclopentanecarboxamide], the Ki was 20 nM in assay [1] and 38 nM in assay [2].
Take `CCCCc1cn(C(C)(C)C)s/c1=N\C(=O)[C@]1(C)CC[C@H](C(=O)NCC(F)(F)F)C1(C)C` [Example 238, (1R,3S)—N^1-[(5Z)-4-butyl-2-tert-butylisothiazol-5(2H)-ylidene]-1,2,2-trimethyl-N^3-(2,2,2-trifluoroethyl)cyclopentane-1,3-dicarboxamide]: the Ki in assay [1] was determined as 14 nM; in assay [2] it was 23 nM.
With `CCCCc1cn(C(C)(C)C)s/c1=N\C(=O)[C@]1(C)CC[C@H](C(=O)N(C)C)C1(C)C` [Example 179, (1R,3S)—N^1-[(5Z)-4-butyl-2-tert-butylisothiazol-5(2H)-ylidene]-N^3,N^3,1,2,2-pentamethylcyclopentane-1,3-dicarboxamide], the results for the Ki in assay [1] and in assay [2] were 67 nM and 160 nM, respectively.
Turning to `CCCCc1cn(C(C)(C)C)s/c1=N\C(=O)[C@]1(C)CC[C@H](C(=O)NN2CCCC2)C1(C)C` [Example 249, (1R,3S)—N^1-[(5Z)-4-butyl-2-tert-butylisothiazol-5(2H)-ylidene]-1,2,2-trimethyl-N^3-pyrrolidin-1-ylcyclopentane-1,3-dicarboxamide], the Ki was determined as 325 nM in assay [1] (setting [3]) and 110 nM in assay [2] (setting [4]).
Turning to `CCCCc1cn(C(C)(C)C)s/c1=N\C(=O)[C@@]1(C)CC[C@@H](NC(=O)c2ccccc2)C1(C)C` [Example 255, N-[(1R,3S)-3-({[(5Z)-4-butyl-2-tert-butylisothiazol-5(2H)-ylidene]amino}carbonyl)-2,2,3-trimethylcyclopentyl]benzamide], the Ki in assay [1] amounted to 69 nM; in assay [2] it was 25 nM.
In the case of `CCCCc1cn(C(C)(C)C)s/c1=N\C(=O)[C@]1(C)CC[C@H](NC(=O)N2CCCC2)C1(C)C` [Example 244, N-[(1S,3R)-3-({[(5Z)-4-butyl-2-tert-butylisothiazol-5(2H)-ylidene]amino}carbonyl)-2,2,3-trimethylcyclopentyl]pyrrolidine-1-carboxamide], the values for the Ki in assay [1] (setting [3]) and in assay [2] were 150 nM and 42 nM, respectively.
Take `COc1ccc(Cl)cc1C(=O)/N=c1\sn(C(C)(C)C)cc1Cc1ccccc1` [Example 35, N-[(5Z)-4-benzyl-2-tert-butylisothiazol-5(2H)-ylidene]-5-chloro-2-methoxybenzamide]: the Ki was determined as 1.1 nM in assay [1] and 9.1 nM in assay [2].
For the compound `CCCCc1cn(C(C)(C)C)s/c1=N\C(=O)c1cc(C=NOC)ccc1OC` [Example 57, N-[(5Z)-4-butyl-2-tert-butylisothiazol-5(2H)-ylidene]-2-methoxy-5-[(methoxyimino)methyl]benzamide], the Ki in assay [1] was determined as 18 nM; in assay [2] (setting [4]), 190 nM.
For `CCCCc1cn(C(C)(C)C)s/c1=N\C(=O)c1cc(C(F)(F)F)ccc1OC[C@@H]1CCC(=O)N1` [Example 194, N-[(5Z)-4-butyl-2-tert-butylisothiazol-5(2H)-ylidene]-2-{[(2S)-5-oxopyrrolidin-2-yl]methoxy}-5-(trifluoromethyl)benz amide], the Ki was found to be 41 nM in assay [1] and 170 nM in assay [2] (setting [4]).
Take `COc1ccc(C#N)cc1C(=O)/N=c1\sn(C(C)(C)C)cc1Cc1cccs1` [Example 53, N-[(5Z)-2-tert-butyl-4-(thien-2-ylmethyl)isothiazol-5(2H)-ylidene]-5-cyano-2-methoxybenzamide]: the Ki in assay [1] worked out at 2.6 nM; in assay [2] it was 59 nM.
Take `CCCCc1cn(C(C)(C)C)s/c1=N\C(=O)[C@]1(C)CC[C@H](C(=O)NCCCO)C1(C)C` [Example 213, (1R,3S)—N^1-[(5Z)-4-butyl-2-tert-butylisothiazol-5(2H)-ylidene]-N^3-(3-hydroxypropyl)-1,2,2-trimethylcyclopentane-1,3-dicarboxamide]: the Ki was determined as 45 nM in assay [1] and 140 nM in assay [2] (setting [4]).
`CCCCc1cn(C(C)(C)C)s/c1=N\S(=O)(=O)c1ccccc1` [Example 119, N-[(5Z)-4-butyl-2-tert-butylisothiazol-5(2H)-ylidene]benzenesulfonamide]: the values for the Ki in assay [1] and in assay [2] (setting [4]) were 33 nM and 170 nM, respectively.
Consider `CC(C)Cc1cn(C(C)(C)C)s/c1=N\C(=O)c1cc(C(F)(F)F)ccc1OCc1ccccn1` [Example 200, N-[(5Z)-2-tert-butyl-4-isobutylisothiazol-5(2H)-ylidene]-2-(pyridin-2-ylmethoxy)-5-(trifluoromethyl)benzamide], for which the Ki in assay [1] (setting [3]) was 391 nM; in assay [2] (setting [4]), 470 nM.
Take `COc1ccc(Cl)cc1C(=O)/N=c1\sn(C(C)(C)C)cc1COCCF` [Example 90, N-[(5Z)-2-tert-butyl-4-[(2-fluoroethoxy)methyl]isothiazol-5(2H)-ylidene]-5-chloro-2-methoxybenzamide]: the Ki was determined as 27 nM in assay [1] and 280 nM in assay [2] (setting [4]).
For `CCCCc1cn(C2CCC2)s/c1=N\C(=O)c1cc(Cl)ccc1OC` [Example 3, N-[(5Z)-4-butyl-2-cyclobutylisothiazol-5(2H)-ylidene]-5-chloro-2-methoxybenzamide], the Ki in assay [1] was found to be 11 nM; in assay [2] (setting [4]), 410 nM.
As to `CCCCc1cn(C(C)(C)C)s/c1=N\C(=O)C12CC3CC(C1)CC(C(=O)OC)(C3)C2` [Example 265, Methyl 3-({[(5Z)-4-butyl-2-tert-butylisothiazol-5(2H)-ylidene]amino}carbonyl)adamantane-1-carboxylate], the Ki came to 0.07 nM in assay [1] and 0.32 nM in assay [2].
`CCCCc1cn(C(C)(C)C)s/c1=N\C(=O)[C@]1(C)CC[C@H](NC(=O)NC)C1(C)C` [Example 252, (1R,3S)—N-[(5Z)-4-butyl-2-tert-butylisothiazol-5(2H)-ylidene]-1,2,2-trimethyl-3-{[(methylamino)carbonyl]amino}cyclopentanecarboxamide]: the Ki in assay [1] worked out at 18.8 nM; in assay [2], 6.2 nM.
Regarding `COc1ccc(Cl)cc1C(=O)/N=c1\sn(C(C)(C)C)cc1C(O)c1ccccc1` (centres unmarked) [Example 31, N-[(5Z)-2-tert-butyl-4-[hydroxy(phenyl)methyl]isothiazol-5(2H)-ylidene]-5-chloro-2-methoxybenzamide], the Ki in assay [1] was 5.8 nM; in assay [2], 63 nM.
In the case of `CCCCc1cn(C(C)(C)C)s/c1=N\C(=O)c1cc(CF)ccc1OC` [Example 66, N-[(5Z)-4-butyl-2-tert-butylisothiazol-5(2H)-ylidene]-5-(fluoromethyl)-2-methoxybenzamide], the results for the Ki in assay [1] and in assay [2] (setting [4]) were 12 nM and 103 nM, respectively.
Turning to `CCCCc1cn(C(C)(C)C)s/c1=N\C(=O)[C@@]1(C)CC[C@@H](C(=O)NCCC)C1(C)C` [Example 219, (1S,3R)—N^1-[(5Z)-4-butyl-2-tert-butylisothiazol-5(2H)-ylidene]-1,2,2-trimethyl-N^3-propylcyclopentane-1,3-dicarboxamide], the Ki in assay [1] (setting [3]) amounted to 159 nM; in assay [2] (setting [4]), 204 nM.
As for `CCCCc1cn(C(C)(C)C)s/c1=N\C(=O)[C@@]1(C)CC[C@@H](C(=O)NC2CCC2)C1(C)C` [Example 225, (1S,3R)—N^1-[(5Z)-4-butyl-2-tert-butylisothiazol-5(2H)-ylidene]-N^3-cyclobutyl-1,2,2-trimethylcyclopentane-1,3-dicarboxamide], the Ki in assay [1] (setting [3]) came to 423 nM; in assay [2] (setting [4]) it was 290 nM.
Take `CCCCc1cn(C(C)(C)C)s/c1=N\C(=O)[C@]1(C)CC[C@H](NC(=O)OC)C1(C)C` [Example 215, Methyl (1S,3R)-3-({[(5Z)-4-butyl-2-tert-butylisothiazol-5(2H)-ylidene]amino}carbonyl)-2,2,3-trimethylcyclopentylcarbamate]: the Ki was 91 nM in assay [1] and 69 nM in assay [2].
For the compound `CCCCc1cn(C(C)(C)C)s/c1=N\C(=O)C12CCC(C(=O)OC)(CC1)CC2` [Example 108, Methyl 4-({[(5Z)-4-butyl-2-tert-butylisothiazol-5(2H)-ylidene]amino}carbonyl)bicyclo[2.2.2]octane-1-carboxylate], the results for the Ki in assay [1] and in assay [2] (setting [4]) were 13 nM and 180 nM, respectively.
In the case of `CCCCc1c(C)n(C)s/c1=N\C(=O)C12CC3CC(CC1C3)C2` [Example 4, N-[(5Z)-4-butyl-2,3-dimethylisothiazol-5(2H)-ylidene]hexahydro-2,5-methanopentalene-3a(1H)-carboxamide], the Ki in assay [1] is 3.2 nM; in assay [2] it was 3.8 nM.
Consider `CCCCc1cn(C(C)(C)C)s/c1=N\C(=O)[C@]1(C)CC[C@H](C(=O)N2CCC2)C1(C)C` [Example 178, (1R,3S)-3-(azetidin-1-ylcarbonyl)-N-[(5Z)-4-butyl-2-tert-butylisothiazol-5(2H)-ylidene]-1,2,2-trimethylcyclopentanecarboxamide], for which the Ki was 46 nM in assay [1] and 170 nM in assay [2].
Consider `COCCc1cn(C(C)(C)C)s/c1=N\C(=O)c1cc(Cl)ccc1OC` [Example 11, N-[(5Z)-2-tert-butyl-4-(2-methoxyethyl)isothiazol-5(2H)-ylidene]-5-chloro-2-methoxybenzamide], for which, in assay [1], the Ki turned out to be 29 nM.
